Values joined by “and” are separate entries in the source; they are usually repeats but may differ in a detail not shown here. Equal entries are not always repeated. Where two headings read alike, the source gives them in different places.
Experiments:
[1] = Minipig intraduodenal (id) bioavailability of oil formulations versus iv parent complex; type: in vivo, Gottingen minipig; details: id 10 mg/kg, 10% by weight formulation, vs 1 mg/kg iv parent, AUC0->24 h
Description: Compounds were screened for oral bioavailability by injecting the formulated prodrugs directly into the duodenum (intraduodenal or id administration) of the minipig test subjects, thus bypassing the acidic environment of the stomach and thereby eliminating potentially misleading oral bioavailability results that could arise from alteration of the test article drug in the acid environment of the stomach.
The studies were conducted at Xenometrics LLC (Stillwell, Kans.) and the id bioavailability was determined using various axial ligand derivative complexes of GC4419, GC4444, GC4403 and GC4401. […] The following formula is then used to calculate the % oral bioavailability via intestinal absorption of the test article drug complex:
% Oral Bioavailability=AUC0->24 h(id)×(1/dose (mg/kg))÷AUC0->24 hr (iv)*
*Where the iv dose is 1 mg of test article drug per kilogram body weight of the mini-pig, and the dose administered id is 10 mg of test article drug per kg body weight of the mini-pig.
Male Gottingen minipigs (4-5 mo old, 9-12 kg weight) were purchased from Marshall BioResources and housed at Xenometrics. […] The distal end was exteriorized with a reusable accessible hub (see surgical details below). During a recovery period of at least 2 weeks the minipigs were handled daily to acclimate them to the test procedures, i.e., id dosing and blood collections. For each experiment, each minipig received a test article drug dissolved or suspended in an excipient vehicle. […] All dosing experiments were conducted in fasted animals. Food was withdrawn from the minipigs 16 hours before dosing. The minipigs had ad libitum access to water. Dosed minipigs were allowed access to food 6 hour after dosing. The test article was administered at a dose of 10 mg/kg parent drug in 0.1 mL/kg vehicle (e.g., 1.5 mL in 15 kg minipig) as a bolus injection (˜1 minute) via the id cannula. The actual amount of total test article drug administered varied with the formula weight of the prodrug. An equal volume of excipient vehicle was used to flush the cannula after the test article was administered. Approximately 6 hours later, corn oil was used to flush the cannula. After approximately 24 hours post-dose, the catheter was flushed with sterile saline solution and capped. At the following time-points 0.25, 0.5, 1, 2, 4, 8, 24 and 48 hour post-injection, 2 mL blood samples were collected by cranial vena cava puncture (4 mL Sodium heparin Vacutainer, 20 g 1.5″ needle) after the skin surface was wiped with ethanol. The minipig was placed in a sling in a recumbent position without anesthesia for the collection of blood samples. The minipigs were never used more than once per 7 days for experimentation. The blood samples were kept on ice until processed for plasma. Blood samples were centrifuged at 1200×g for ten minutes at 4° C. and plasma samples were transferred to 96 well plate tubes, capped and stored at −20° C. until shipment on dry ice to the analytical laboratory used for measuring the concentration of drug in the plasma. The concentration of the parent manganese pentaaza macrocylic ring complex (independent of the composition of the axial ligands) was measured in plasma using a validated HPLC/MS/MS method that is linear between 50 ng/mL and 20,000 ng/mL.
The oils used for preparing the dosing solutions were used as supplied from commercial sources. The Capmul MCM (NF) is a mixture of mono/diglycerides of caprylic/capric acids and was supplied by ABITEC Corporation, Janesville, Wis. The Miglyol 812 N is a mixture of caprylic/capric acid triglycerides and was supplied by Cremer Oleo Division, Eatontown, N.J. Labrafil M 2125 CS (NF) is chemically defined to be linoleoyl polyoxyl-6 glycerides NF and was supplied by Gattefosse, SAINT-PRIEST Cedex, France. Peceol is chemically defined to be the monoglyceride, glyceryl monooleate NF, and was supplied by Gattefosse, SAINT-PRIEST Cedex, France. […]

[2] = Rat indomethacin model of intestinal inflammation (Crohn's Disease); type: in vivo, Female Lewis rats
Description: A study was conducted to determine the potential efficacy of GC4403 delivered locally to the intestine in a model of intestinal inflammation (Crohn's Disease) induced by the administration of indomethacin. Female Lewis rats received cannulae surgically implanted in the duodenum with the opposite end exteriorized, and were allowed to recover. The cannulae enabled the direct injection of GC4403 or vehicle into the duodenum (intraduodenal or ID dosing) in these animals; however, uncannulated female Lewis rats were used for dosing groups not receiving ID dosing. Rats were administered indomethacin on experimental days 0 and 1 (9 mg/kg/d; subcutaneously) to induce lesions similar to those occurring in Crohn's disease in the small intestine (SI). The therapeutic interventions outlined in Table II were administered in 9 dosing groups of 10 (IV) or 12 (ID) animals each on days 0 through 3:
The rats were sacrificed and necropsied on day 4, and 10 cm sections from the middle portion of the SI (jejunum) were weighed and examined by histopathology for inflammation. The weight of a 10 cm section serves as a surrogate marker for comparing inflammation and edema across the dosing groups.

[3] = Plasma pharmacokinetics after intraduodenal or intravenous dosing in female rats; type: in vivo; details: for plasma concentrations and Cmax: rat, in vivo
Description: Therefore, following equivalent doses of GC4403, the systemic exposure to an ID dose in this Example was at least 30-100 times lower than it would be from an IV dose. […] This is important since the No Observable Adverse Effect Level (NOAEL) for chronic repeated IV dosing of GC4403 in the rat was previously shown to be only 3 mg/kg/day, and at this time, GC4403 has only be administered successfully to humans by the IV route. Thus, GC4403 or another related dismutase mimetic, such as GC4419, administered as an appropriate oral dosage form delivering drug directly into the small intestine may be an effective treatment for Crohn's Disease, ulcerative colitis and related diseases in humans.

[4] = chronic repeated IV dosing, rat; cited from earlier work
[5] = 30-minute iv infusion in humans; cited from earlier work
[6] = Maximum tolerated dose by 30-minute iv infusion in humans; details: in a 70-kg subject
[7] = Phase 1b trial of intravenous GC4419: toxicity and plasma pharmacokinetics; type: in vivo, human
Description: (§1) The toxicity of GC4419 administered intravenously was evaluated as a part of a phase 1b trial of the use of GC4419 in the treatment of oral mucositis (OM) in patients having oral cavity or oropharyngeal carcinoma. The bioavailability by intravenous administration is presumed to represent 100% systemic bioavailability. In particular, the patients tested included serial 3-6 patient cohorts, with locally-advanced, non-metastatic oral cavity or oropharyngeal carcinoma. The study called for intensity-modulated (IM)RT to approx. 70 Gy total (>50 Gy to >2 oral sites), 2.0-2.2 Gy/fx M-F plus CDDP; plus escalating doses of GC4419, via 60-minute IV infusion, M-F for 3-7 weeks, ending <60 minutes before IMRT. WHO grade of oral mucositis was assessed twice weekly, and levels of GC4419 were measured in plasma by LC/MS. Circulating cytokines (Cy) mechanistically related to oral mucositis were also assayed.
Furthermore, or Phase 1 trials for chemoradiotherapy-induced mucositis (OM) in patients with mouth or oropharyngeal carcinoma, treatment was provided but certain adverse effects (e.g., due to systemic toxicity) occurred. The dosing regimen included dosing with GC4419 intravenously over a period of 60 minutes, ending 60 minutes before an IMRT fraction, according to the protocol as described above. The most common adverse effects were nausea, fatigue, leukopenia, dry mount, dysgeusia and vomiting, and most were attributable to chemo or radiation therapy. A true “maximum dose” was not reached in this study. […] 16% of patients receiving 90 mg/day had grade 3 nausea, and 25% of those receiving 112 mg/day had grade 3 nausea, with those receiving 112 mg/day also experiencing some grade 3 vomiting (i.e., 25%).

[8] = Phase 1b trial of intravenous GC4419: oral mucositis outcome; type: in vivo, human; details: IV GC4419 with IMRT plus CDDP; compared with historical controls
Description: as §1

[9] = 10 mg/kg IP injection on days 0-3
[10] = 30 mg/kg ID, direct topical delivery into the intestine

Compound: O=C([O-])c1ccccc1.O=C([O-])c1ccccc1.[Mn+2].c1cc2nc(c1)CNC1CCCCC1NCCNC1CCCCC1NC2 [GC4712, Manganese(II)bis-Benzoato[(4aS,13aS,17aS,21aS)-1,2,3,4,4a,5,6,12,13,13a,14,15,16,17,17a,18,19,20,21,21a-Eicosahydro-11,7-nitrilo-7H-dibenzo[b,h][1,4,7,10]tetraazacycloheptadecine-κN5, κN13, κN18, κN21, κN22]-]
- Mini-Pig BioA ([1]; Base oil Capmul MCM): 24%
- Mini-Pig BioA ([1]; Base oil Maisine 35-1): 18%
- Mini-Pig BioA ([1]; Base oil Peceol): 29%

Compound: [Cl-].[Cl-].[Mn+2].c1cc2nc(c1)CN[C@@H]1CCCC[C@H]1NCCN[C@@H]1CCCC[C@H]1NC2 [GC4403]
- jejunal score [2, 9]: reduced
- jejunal weight [2, 9]: reduced
- reduction in jejunal score [2, 10]: 21%
- reduction in jejunal weight [2, 10]: 32%
- mean plasma maximum ([3]; 3 mg/kg IV dose, separate study, measured 10 min after injection): at least 3,280 ng/mL
- mean plasma maximum (Cmax) ([3]; 30 mg/kg ID dose): 303 ng/mL
- calculated bioavailability ([3]; 30 mg/kg ID dose, AUC of ID vs estimated AUC with IV): 3.1%
- expected Cmax extrapolated ([3]; 30 mg/kg IV dose): approximately 32,800 ng/mL
- Cmax of ID dose relative to expected Cmax of same dose IV ([3]; 30 mpk ID vs 30 mg/kg IV (extrapolated)): less than 1%
- systemic exposure to an ID dose, lower than from an IV dose ([3]; equivalent doses): 30-100 times
- No Observable Adverse Effect Level (NOAEL) [4]: 3 mg/kg/day
- maximum tolerated dose [5]: 25 mg
- maximum tolerated dose [6]: roughly 0.35 mg/kg

Compound: [Cl][Mn][Cl].c1cc2nc(c1)CN[C@H]1CCCC[C@@H]1NCCN[C@H]1CCCC[C@@H]1NC2 [GC4419]
- nausea, patients ([7]; 30 mg/day for 14 or 30 doses, IV): 86%
- nausea, patients ([7]; 50 mg/day for 14 doses, IV): 100%
- nausea, patients ([7]; 75 mg/day for 14 doses, IV): 67%
- grade 3 nausea, patients ([7]; 90 mg/day, IV): 20% and 16%
- Dose-limiting toxicities that occurred, grade 3 ([7]; 112 mg daily, 60-minute IV infusion, with IMRT/CDDP): gastroenteritis (3 wks); and vomiting with hyponatremia (5+ wks)
- nausea, patients ([7]; 112 mg/day for 14, 20, 25 or 30 doses, IV): 89% and 85%
- Cmax and AUC ([7]; 60-minute IV infusion, 15-112 mg): dose-proportional
- plasma t1/2 ([7]; 60-minute IV infusion, patients): ~2 h
- dose limiting toxicity observed at ([7]; 60-minute IV infusion, grade 3 gastroenteritis at 3 weeks, grade 3 vomiting and hyponatremia at 5+ weeks): 112 mg/day
- GC4419-related toxicity ([7]; IV, 15-112 mg daily for 3-7 weeks): acceptable
- maximum dose ([7]; IV, up to 112 mg/day): not reached
- facial tingling ([7]; during infusion): Mild, transient facial tingling was observed
- paresthesia ([7]; patients receiving more than 30 mg/day, IV): Some grade 1-2 paresthesia was also observed
- Severe OM [8]: briefer, delayed, less severe, and less frequent than expected
- plasma concentrations and Cmax [3]: similarly low plasma concentrations and Cmax as GC4403
- plasma concentrations and Cmax ([3]; iv): similarly high plasma concentrations and Cmax

Compound: Manganese(II)bis-D-phenylglycinato [(4aS,13aS,17aS,21aS)-1,2,3,4,4a,5,6,12,13,13a, 14,15,16,17,17a,18,19,20,21,21a-Eicosahydro-11,7-nitrilo-7H-dibenzo[b,h][1,4,7,10] tetraazacyclo-heptadecine-κN5, κN13, κN18, κN21, κN22]- [GC4721]
- Mini-Pig BioA ([1]; Base oil Miglyol 812 N): 11.5%^

Compound: CC1NC2CCCCC2NCCNC2CCCCC2NCc2cccc1n2.CCC(=O)[O-].CCC(=O)[O-].[Mn+2] [GC4747, Manganese(II)bis-propionato[6R-Methyl(4aR,13aR,17aR,21aR)-1,2,3,4,4a,5,6,12,13,13a,14,15,16,17,17a,18,19,20,21,21a-Eicosahydro-11,7-nitrilo-7H-dibenzo[b,h][1,4,7,10]tetraazacycloheptadecine-κN5, κN13, κN18, κN21, κN22]-]
- Mini-Pig BioA ([1]; Base oil Labrafil M2125 CS): 20%

Compound: CCCC(=O)[O-].CCCC(=O)[O-].[Mn+2].c1cc2nc(c1)CNC1CCCCC1NCCNC1CCCCC1NC2 [GC4713, Manganese(II)bis-n-Butyrato[(4aS,13aS,17aS,21aS)-1,2,3,4,4a,5,6,12,13,13a,14,15,16,17,17a,18,19,20,21,21a-Eicosahydro-11,7-nitrilo-7H-dibenzo[b,h][1,4,7,10]tetraazacycloheptadecine-κN5, κN13, κN18, κN21, κN22]-]
- Mini-Pig BioA ([1]; Base oil Labrafil M2125 CS): 21%
- Mini-Pig BioA ([1]; Base oil Peceol): 18%
